Entries after “also recorded” stand apart in the source; their conditions may differ.
Assays:
[1] = target: ERα ligand binding domain (Homo sapiens, UniProt P03372); experiment: Competitive [3H]-estradiol binding assay, ER-α (Example 21)
Method: (§1) ER binding affinity was determined via one of the following methods:
(§2) Briefly, the incubation mixture was filtered through a high affinity protein binding filter, and washed several times to remove any unbound radioactivity. The filter plate was air dried and sealed on the bottom.
(§3) Nonspecific binding was subtracted from total binding to yield specific binding.

[2] = target: ERβ ligand binding domain (Homo sapiens, UniProt Q92731); experiment: Competitive [3H]-estradiol binding assay, ER-β (Example 21)
Sequence of ERβ ligand binding domain (Q92731 whole entry, looked up, the tested form may be a part): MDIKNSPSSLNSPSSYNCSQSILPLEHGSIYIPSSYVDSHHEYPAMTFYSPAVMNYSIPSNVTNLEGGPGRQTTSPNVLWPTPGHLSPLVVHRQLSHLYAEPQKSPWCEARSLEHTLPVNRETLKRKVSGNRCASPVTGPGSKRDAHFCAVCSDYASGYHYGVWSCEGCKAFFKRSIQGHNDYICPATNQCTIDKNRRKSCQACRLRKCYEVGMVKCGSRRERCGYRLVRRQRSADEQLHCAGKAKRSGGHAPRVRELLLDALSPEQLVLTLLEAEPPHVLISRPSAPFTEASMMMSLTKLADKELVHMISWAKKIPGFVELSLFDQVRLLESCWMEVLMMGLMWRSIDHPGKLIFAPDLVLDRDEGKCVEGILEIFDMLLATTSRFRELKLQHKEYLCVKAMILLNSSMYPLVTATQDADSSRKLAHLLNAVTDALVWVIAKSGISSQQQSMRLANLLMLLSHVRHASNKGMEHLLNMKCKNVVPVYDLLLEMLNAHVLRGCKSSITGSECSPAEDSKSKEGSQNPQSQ
Method: as §1, §2, §3

[3] = target: ER-β (Rattus norvegicus (Rat), UniProt Q62986); experiment: ER-β transactivation (ERE-LUC) in COS or 293 cells; assay type: cell-based; conditions: for activation at 0.1 µM: HEK293, 48 h, read-out: Estradiol activity at 100 nM of NRBA, ER-β, 100 nM compound compared to 1 nM estradiol
Sequence of ER-β (Q62986 whole entry): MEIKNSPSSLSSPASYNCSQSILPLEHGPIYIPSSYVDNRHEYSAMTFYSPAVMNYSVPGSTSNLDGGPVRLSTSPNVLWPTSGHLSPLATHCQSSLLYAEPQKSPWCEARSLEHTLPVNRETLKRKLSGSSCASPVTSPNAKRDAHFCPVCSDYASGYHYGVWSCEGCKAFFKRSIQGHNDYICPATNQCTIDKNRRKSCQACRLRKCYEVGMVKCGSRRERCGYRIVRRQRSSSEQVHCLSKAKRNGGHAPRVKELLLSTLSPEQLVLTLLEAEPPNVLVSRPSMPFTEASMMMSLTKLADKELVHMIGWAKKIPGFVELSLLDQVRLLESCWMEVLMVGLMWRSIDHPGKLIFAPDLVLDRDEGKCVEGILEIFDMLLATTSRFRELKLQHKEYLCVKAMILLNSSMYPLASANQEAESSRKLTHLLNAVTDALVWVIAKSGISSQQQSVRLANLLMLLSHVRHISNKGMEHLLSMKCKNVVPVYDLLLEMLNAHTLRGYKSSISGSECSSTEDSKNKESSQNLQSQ
Method: COS or 293 cells were plated in DME without phenol red+10% cs FBS at 90,000 cells per well in 24 well plates, and were transfected with 0.25 μg of the vector “ERE-LUC”, where a firefly luciferase gene was driven by two estrogen responsive elements and 0.02 μg of the control CMV-LUC, Renilla where a luciferase gene was driven by a CMV promoter. […] All the receptors were cloned from rat tissue into the PCR3.1 vector backbone. Twenty four hours post transfection, cells were treated with compounds of this invention, estrogen, DHT, and other NRBAs or combinations thereof. Cells were harvested 48 hrs after transfection, and assayed for firefly and Renilla luciferase activity.

[4] = target: ER-α (Rattus norvegicus (Rat), UniProt P06211); experiment: Transient transactivation assay in HEK-293 cells, ER-α and ERE-LUC; assay type: cell-based
Method: Human estrogen receptors (ER-α and ER-β) were cloned from prostate cDNA into a pCR3.1 plasmid vector backbone. PGC-1 was cloned into mammalian two hybrid vector pACT. ER-β H475 was mutated to alanine using site-directed mutagenesis. Sequencing was performed to determine the absence of any non specific mutations. SHP promoter (−572 to +10) (26) was cloned into pGL3 basic LUC reporter vector and human FXR was cloned into pCR3.1. HEK-293 cells were plated at 100,000 cells per well of a 24 well plate in […] (DMEM)+5% charcoal-stripped fetal bovine serum (csFBS). The cells were transfected using Lipofectamine (Invitrogen, Carlsbad, Calif.) with 0.25 μg ERE-LUC, 0.02 μg CMV-LUC (renilla luciferase) and 12.5 ng of rat ER-α or 25 ng rat ER-β. […] Luciferase assays were performed 48 hrs after transfection.
To determine if the selectivity in ER binding also translated into ER-β-selective activity, transient transactivation assays were performed in HEK-293 cells transfected with plasmids encoding ER-α or ER-β and ERE-LUC. The cells were treated with varying concentrations of the ligands and their EC50 values were determined.

[5] = test system: receptors for progesterone, mineralocorticoids, androgens, glucocorticoids, FXR, PXR, LXR, RXR, PPAR-α, PPAR-γ and ERR-α, ERR-β and ERR-γ; experiment: Transactivation assays for cross reactivity with 13 other NHR; assay type: cell-based; conditions: concentrations as high as 10 μM; data not shown
[6] = test system: high fat diet (HFD) induced obesity model; experiment: High fat diet induced obesity, prevention studies; assay type: in vivo, C57BL6 male mice; conditions: for Prevention of the increase in body fat (MRI) / Prevention of body weight increase caused by the high fat diet: Study 2, 30 mg/kg/day s.c.; for Lean mass (MRI): Study 2, high fat diet; for Fat mass (MRI): Study 2, versus high fat diet and vehicle
Method: The mice were treated for 12 weeks.

[7] = test system: rat aorta rings; experiment: Rat aortic ring relaxation; conditions: 10^-6 PE constriction; for EC50: Rattus norvegicus
From the text: Experimental protocol. Equipment used in these studies included a 4-tissue bath system with reservoirs and circulators (RadnotiGlass Technology, Monrovia, Calif.), DSI/Ponemah tissue force analyzer 7700 (Valley View, Ohio), and iWorx/CB Sciencesforce transducers FT-302. The 250 g rats were anesthetized with isoflurane to produce deep anesthesia. The chest of the rat was opened, and about 3 cm length of aorta was removed and placed in a Petri dish containing room temperature Krebs salt solution (KSS, in mM: 120 NaCl, 5 KCl, 1.2 MgSO4.7H20, 2.5 CaCl2.2H2O, 1 KH2PO4, 25 NaHCO3, and 11 glucose). Fat and connective tissue were removed from the aorta taking care not to stretch the vessel. The aorta was then divided into 3-mm-wide rings. Triangular wire holders were inserted through the lumen of the vessel and connected to the force transducer and tissue holder rod in the vessel bath.
Analog-to-digital conversions of force waveforms were accomplished with a DSI/Ponemah tissue force analyzer 7700. The converted data were automatically analyzed with Ponemah Physiology-Smooth Muscle software. All data are summarized as means±standard error. Differences between means were assessed by a conventional ANOVA. This was followed by Student's test. P<0.05 was considered to be statistically significant.
The tension on the rings was adjusted to 1.0 g passive force using the tension adjustment dial for each transducer and allowed to equilibrate for 60 min in the bath with a 95% O2-5% CO2 gas mixture. The rings were washed with fresh buffer every 20 min. Passive force was readjusted to 1.0 g as needed during this period. When rings were stable at 1.0 g of passive force, the baseline was calculated.
Phenylephrine (PE) at a final concentration of […] was added to the bath to contract the ring, and force was allowed to stabilize for 10 min. Then acetylcholine (ACH) at a final concentration of 10^−5 M was added to the precontracted rings to test for endothelial integrity […]. After the initial test for vessel viability and endothelial integrity, the rings were washed three times for 10 min with buffer, allowing it to equilibrate to active force stabilized at 1 g.
Cumulative concentration-response curves to NRBAs were created by increasing the NRBAs concentration in the tissue bath by successive addition of appropriate dilutions of stock solutions to achieve final bath concentrations of 300 nM to 0.15 mM NRBAs.
Table 10 summarizes EC50 values and maximal % decrease of the 10^−6 PE constriction of the aortic ring for individual NRBAs tested

[8] = test system: Rat Aortic Smooth Muscle Cells (RASMC); experiment: RASMC cell proliferation assay (WST-1); assay type: cell-based; conditions: for EC50: Rattus norvegicus, inhibitory effect sigmoid Emax model, read-out: EC50 for inhibition of RASMC proliferation; for Proliferation of RASMC: concentration between 10-30 μM
Method: EC50 values were calculated using WinNonLin 5.0.1 using the inhibitory effect sigmoid Emax model.

[9] = target: ER-α ligand binding domain (LBD) (Homo sapiens (Human), UniProt P03372); experiment: Ligand binding assay of 14m and 12u, ER-α (Example 22A)
Sequence of ER-α ligand binding domain (LBD) (P03372 whole entry, looked up, species assumed, the tested form may be a part): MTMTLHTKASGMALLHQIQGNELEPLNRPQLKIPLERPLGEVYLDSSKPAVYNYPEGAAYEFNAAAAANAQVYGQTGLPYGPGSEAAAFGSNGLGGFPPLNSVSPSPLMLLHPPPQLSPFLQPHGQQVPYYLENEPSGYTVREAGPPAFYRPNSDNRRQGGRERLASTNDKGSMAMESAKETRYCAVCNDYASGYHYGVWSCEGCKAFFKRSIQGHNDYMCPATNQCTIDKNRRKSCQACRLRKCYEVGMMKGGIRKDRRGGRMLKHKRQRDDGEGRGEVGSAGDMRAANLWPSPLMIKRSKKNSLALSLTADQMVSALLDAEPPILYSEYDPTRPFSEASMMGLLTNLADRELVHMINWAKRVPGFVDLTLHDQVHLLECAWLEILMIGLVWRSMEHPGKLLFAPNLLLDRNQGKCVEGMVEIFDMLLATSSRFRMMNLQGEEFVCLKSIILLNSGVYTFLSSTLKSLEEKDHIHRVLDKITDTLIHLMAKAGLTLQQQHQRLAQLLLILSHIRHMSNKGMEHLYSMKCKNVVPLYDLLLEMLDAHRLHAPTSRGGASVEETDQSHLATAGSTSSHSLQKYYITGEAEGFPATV

[10] = high fat diet, 30 mg/kg/day s.c.
[11] = high fat diet, 30 mg/kg/day s.c., 12 weeks

Sequence of ERα ligand binding domain (P03372 whole entry, looked up, the tested form may be a part): as the sequence (P03372 whole entry, looked up, species assumed, the tested form may be a part) above

| Compound | activation at 0.1 µM [3] [%] | Function on ER-α in transactivation [4] | Cross reactivity with 13 other NHR [5] | Prevention of the increase in body fat (MRI) [6] | Prevention of body weight increase caused by the high fat diet ([6]; 12 weeks) | Lean mass (MRI) [6] | Fat mass (MRI) [6] | Body weight versus normal diet controls [6, 11] | Gastrocnemius muscle weight ([6]; high fat diet, 12 weeks) | Serum testosterone levels ([6]; high fat diet, 12 weeks) | Testes weights ([6]; high fat diet, 12 weeks) | White adipose tissue (WAT) weight ([6]; high fat diet, 12 weeks) | Mean of Maximal % Decrease of the PE constriction of the aortic ring [7] [%] | EC50 [7] [µM] | EC50 [8] [µM] | Proliferation of RASMC [8] | Ki [9] [µM] | further results |
| --- | --- | --- | --- | --- | --- | --- | --- | --- | --- | --- | --- | --- | --- | --- | --- | --- | --- | --- |
| N#Cc1cn(-c2ccc(O)cc2)c(=O)c2c(O)cc(O)cc12 [14m, 6,8-dihydroxy-2-(4-hydroxyphenyl)-1-oxo-1,2-dihydroisoquinoline-4-carbonitrile] | 74.5 | agonists | did not cross react | more than 50% | more than 50% | increased muscle mass; also recorded: increased the lean mass | reduced fat mass; also recorded: significant reduction in fat mass | statistically indistinguishable from control mice; also recorded: statistically indistinguishable from the normal diet controls | increased gastrocnemius muscle weight | did not affect the serum testosterone levels; also recorded: not altered | not altered | prevented the increase in the WAT weight; also recorded: significantly reduced; also recorded: decreased WAT weight | 94.49 | 7.64 | 7.89 | inhibited the proliferation of RASMC in a dose-dependent manner | 0.094 | Ki ([1]; read-out: ER-α binding constant (Ki)): 0.094 µM; Ki ([2]; read-out: ER-β binding constant (Ki)): 0.007 µM; Accumulation of fat in liver (oil red staining) ([6]; high fat diet): attenuated the accumulation of lipid droplets in the liver; also recorded: completely prevented the accumulation of fat in the liver; Serum cholesterol increase ([6]; high fat diet): significantly reversed; Serum leptin increase ([6]; high fat diet): significantly reversed; Serum macrophage inflammatory protein-1β (MIP-1β) ([6]; high fat diet): undetectable levels; Bone mineral content (BMC, DEXA) [6, 10]: prevented the loss in BMC; Feed consumption / total caloric intake [6, 10]: did not affect total caloric intake; Body fat (DEXA) [6, 11]: suppressing fat mass formation; Reduction in body weight compared to high fat diet and vehicle [6, 11]: greater than 85%; Weight gained more than normal diet-fed controls [6, 11]: 5%; Blood glucose levels in glucose tolerance test ([6]; high fat diet, 150 mg glucose orally): not statistically different from the normal diet controls; Serum follicle stimulating hormone (FSH) levels ([6]; high fat diet, 12 weeks): did not affect serum testosterone and follicle stimulating hormone (FSH) levels |
| O=c1c2c(O)cc(O)cc2c(Br)cn1-c1ccc(O)cc1 [12u, 4-bromo-6,8-dihydroxy-2-(4-hydroxyphenyl)isoquinolin-1(2H)-one] | 85 | agonists | did not cross react | more than 50% | more than 50% | increased muscle mass; also recorded: increased the lean mass | reduced fat mass; also recorded: significant reduction in fat mass | statistically indistinguishable from the normal diet controls | increased gastrocnemius muscle weight | did not affect the serum testosterone levels; also recorded: not altered | not altered | prevented the increase in the WAT weight; also recorded: decreased WAT weight | 50.97 | 30 | 9.56 | inhibited the proliferation of RASMC in a dose-dependent manner | 0.04 | inhibition at 0.1 µM ([1]; 100 nM of compound, read-out: Percent Inhibition of [3H]-Estradiol Binding to ER-α): 61.3%; inhibition at 0.1 µM ([2]; read-out: Percent Inhibition of [3H]-Estradiol Binding to ER-β): 96.7%; ER-β agonist activity [3]: ER-β agonist activity |
